≈ marks a conversion by molar mass, not a printed value.
Target: T1, L-lactate dehydrogenase A chain (Homo sapiens, UniProt P00338)
Test: Inhibition of LDHA in human MIA PaCa2 cells assessed as reduction in lactate production incubated for 2 hrs by fluorescence based assay
Type: cell-based, MIA PaCa-2
Settings: not given

Compound	IC50
NS(=O)(=O)c1ccc(Cc2c(-c3ccc(F)c(OCC4CC4(F)F)c3)nn(-c3nc(C(=O)O)cs3)c2CC2CC2)cc1F (centres undefined)	1400 nM
COc1cccc(COc2cccc(-c3nn(-c4nc(C(=O)O)cs4)cc3Cc3ccc(S(N)(=O)=O)cc3)c2)c1	5400 nM
NS(=O)(=O)c1ccc(Cc2c(-c3cccc(N4CCC(F)(F)C4)c3)nn(-c3nc(C(=O)O)cs3)c2CC2CC2)cc1F	4200 nM
NS(=O)(=O)c1ccc(Cc2c(-c3cccc(N4CCCC(F)(F)C4)c3)nn(-c3nc(C(=O)O)cs3)c2CC2CC2)cc1F	8600 nM

The next lines start with the values.

IC50	Compound
670 nM	NS(=O)(=O)c1ccc(Cc2c(-c3ccc(F)c(OCc4cccc(F)c4)c3)nn(-c3nc(C(=O)O)cs3)c2CC2CC2)cc1F
3200 nM	NS(=O)(=O)c1ccc(Cc2c(-c3ccc(F)c(C(=O)N4CCOCC4)c3)nn(-c3nc(C(=O)O)cs3)c2CC2CC2)cc1F
2100 nM	NS(=O)(=O)c1ccc(Cc2c(-c3ccc(F)c(OC4CC4)c3)nn(-c3nc(C(=O)O)cs3)c2CC2CC2)cc1F
6700 nM	NS(=O)(=O)c1ccc(Cc2c(-c3cccc(Nc4ccccc4)c3)nn(-c3nc(C(=O)O)cs3)c2CC2CC2)cc1
5000 nM	NS(=O)(=O)c1ccc(Cc2c(-c3ccc(F)c(NC(=O)c4ccccc4)c3)nn(-c3nc(C(=O)O)cs3)c2CC2CC2)cc1F
1700 nM	NS(=O)(=O)c1ccc(Cc2c(-c3ccc(F)c(Oc4ccc(F)cc4)c3)nn(-c3nc(C(=O)O)cs3)c2CC2CC2)cc1F

System: not listed separately
Test: Permeability of compound by PAMPA
Type: ADME
Settings: read-out: permeability

Papp	Compound
2.9 ×10⁻⁶ cm/s	NS(=O)(=O)c1ccc(Cc2c(-c3ccc(F)c(OCc4cccc(F)c4)c3)nn(-c3nc(C(=O)O)cs3)c2CC2CC2)cc1F
5.8 ×10⁻⁶ cm/s	NS(=O)(=O)c1ccc(Cc2c(-c3ccc(F)c(OC4CC4)c3)nn(-c3nc(C(=O)O)cs3)c2CC2CC2)cc1F
4.4 ×10⁻⁶ cm/s	NS(=O)(=O)c1ccc(Cc2c(-c3cccc(Nc4ccccc4)c3)nn(-c3nc(C(=O)O)cs3)c2CC2CC2)cc1
6.4 ×10⁻⁶ cm/s	NS(=O)(=O)c1ccc(Cc2c(-c3ccc(F)c(NC(=O)c4ccccc4)c3)nn(-c3nc(C(=O)O)cs3)c2CC2CC2)cc1F

Compound	Papp
NS(=O)(=O)c1ccc(Cc2c(-c3ccc(F)c(OCC4CC4(F)F)c3)nn(-c3nc(C(=O)O)cs3)c2CC2CC2)cc1F (centres undefined)	4.9 ×10⁻⁶ cm/s

Target: T1, L-lactate dehydrogenase A chain
Test: Binding affinity to LDHA (unknown origin) by SPR analysis
Settings: not given

Kd	Compound
0.91 nM	NS(=O)(=O)c1ccc(Cc2c(-c3ccc(F)c(OCc4cccc(F)c4)c3)nn(-c3nc(C(=O)O)cs3)c2CC2CC2)cc1F
0.004 nM	NS(=O)(=O)c1ccc(Cc2c(-c3ccc(F)c(OC4CC4)c3)nn(-c3nc(C(=O)O)cs3)c2CC2CC2)cc1F
1.5 nM	NS(=O)(=O)c1ccc(Cc2c(-c3cccc(Nc4ccccc4)c3)nn(-c3nc(C(=O)O)cs3)c2CC2CC2)cc1

Compound	Kd
NS(=O)(=O)c1ccc(Cc2c(-c3ccc(F)c(OCC4CC4(F)F)c3)nn(-c3nc(C(=O)O)cs3)c2CC2CC2)cc1F (centres undefined)	0.008 nM

System: not listed separately
Test: Kinetic solubility of compound
Type: physicochemical
Settings: read-out: Kinetic_solubility

solubility kinetic	Compound
10.7 µg/mL (≈ 16.3 µM)	NS(=O)(=O)c1ccc(Cc2c(-c3ccc(F)c(OCc4cccc(F)c4)c3)nn(-c3nc(C(=O)O)cs3)c2CC2CC2)cc1F
> 87 µg/mL	NS(=O)(=O)c1ccc(Cc2c(-c3ccc(F)c(OC4CC4)c3)nn(-c3nc(C(=O)O)cs3)c2CC2CC2)cc1F
49.3 µg/mL (≈ 84.2 µM)	NS(=O)(=O)c1ccc(Cc2c(-c3cccc(Nc4ccccc4)c3)nn(-c3nc(C(=O)O)cs3)c2CC2CC2)cc1
> 98 µg/mL	NS(=O)(=O)c1ccc(Cc2c(-c3ccc(F)c(NC(=O)c4ccccc4)c3)nn(-c3nc(C(=O)O)cs3)c2CC2CC2)cc1F

Compound	solubility kinetic
NS(=O)(=O)c1ccc(Cc2c(-c3ccc(F)c(OCC4CC4(F)F)c3)nn(-c3nc(C(=O)O)cs3)c2CC2CC2)cc1F (centres undefined)	76.1 µg/mL (≈ 120 µM)

System: A673
Test: Cytotoxicity against human A673 cells assessed as reduction in cell viability incubated for 48 hrs by cell titer glo assay
Type: functional, cell-based
Settings: A673, 48 h

Compound	IC50
NS(=O)(=O)c1ccc(Cc2c(-c3ccc(F)c(OCc4cccc(F)c4)c3)nn(-c3nc(C(=O)O)cs3)c2CC2CC2)cc1F	550 nM
NS(=O)(=O)c1ccc(Cc2c(-c3ccc(F)c(OCC4CC4(F)F)c3)nn(-c3nc(C(=O)O)cs3)c2CC2CC2)cc1F (centres undefined)	900 nM
NS(=O)(=O)c1ccc(Cc2c(-c3ccc(F)c(OC4CC4)c3)nn(-c3nc(C(=O)O)cs3)c2CC2CC2)cc1F	1500 nM
NS(=O)(=O)c1ccc(Cc2c(-c3cccc(Nc4ccccc4)c3)nn(-c3nc(C(=O)O)cs3)c2CC2CC2)cc1	34500 nM
NS(=O)(=O)c1ccc(Cc2c(-c3ccc(F)c(NC(=O)c4ccccc4)c3)nn(-c3nc(C(=O)O)cs3)c2CC2CC2)cc1F	5300 nM

System: MIA PaCa-2
Test: Cytotoxicity against human MIA PaCa-2 cells assessed as reduction in cell viability incubated for 48 hrs by cell titer glo assay
Type: functional, cell-based
Settings: MIA PaCa-2, 48 h

Compound	IC50
NS(=O)(=O)c1ccc(Cc2c(-c3ccc(F)c(OCc4cccc(F)c4)c3)nn(-c3nc(C(=O)O)cs3)c2CC2CC2)cc1F	2100 nM
NS(=O)(=O)c1ccc(Cc2c(-c3ccc(F)c(OCC4CC4(F)F)c3)nn(-c3nc(C(=O)O)cs3)c2CC2CC2)cc1F (centres undefined)	2400 nM
NS(=O)(=O)c1ccc(Cc2c(-c3ccc(F)c(OC4CC4)c3)nn(-c3nc(C(=O)O)cs3)c2CC2CC2)cc1F	5700 nM
NS(=O)(=O)c1ccc(Cc2c(-c3cccc(Nc4ccccc4)c3)nn(-c3nc(C(=O)O)cs3)c2CC2CC2)cc1	21200 nM
NS(=O)(=O)c1ccc(Cc2c(-c3ccc(F)c(NC(=O)c4ccccc4)c3)nn(-c3nc(C(=O)O)cs3)c2CC2CC2)cc1F	17400 nM

Target: T1, L-lactate dehydrogenase A chain
Test: Inhibition of recombinant human LDHA using sodium pyruvate as substrate preincubated for 5 mins followed by diaphorase/resazurin addition and measured after 20 mins by fluorescence based assay
Settings: not given

Compound	IC50
NS(=O)(=O)c1ccc(Cc2c(-c3ccc(F)c(OCC4CC4(F)F)c3)nn(-c3nc(C(=O)O)cs3)c2CC2CC2)cc1F (centres undefined)	5 nM
COc1cccc(COc2cccc(-c3nn(-c4nc(C(=O)O)cs4)cc3Cc3ccc(S(N)(=O)=O)cc3)c2)c1	21 nM
NS(=O)(=O)c1ccc(Cc2c(-c3cccc(N4CCC(F)(F)C4)c3)nn(-c3nc(C(=O)O)cs3)c2CC2CC2)cc1F	15 nM
NS(=O)(=O)c1ccc(Cc2c(-c3cccc(N4CCCC(F)(F)C4)c3)nn(-c3nc(C(=O)O)cs3)c2CC2CC2)cc1F	18 nM

Second part, the compound after the results:

IC50	Compound
22 nM	NS(=O)(=O)c1ccc(Cc2c(-c3ccc(F)c(OCc4cccc(F)c4)c3)nn(-c3nc(C(=O)O)cs3)c2CC2CC2)cc1F
22 nM	NS(=O)(=O)c1ccc(Cc2c(-c3ccc(F)c(C(=O)N4CCOCC4)c3)nn(-c3nc(C(=O)O)cs3)c2CC2CC2)cc1F
8 nM	NS(=O)(=O)c1ccc(Cc2c(-c3ccc(F)c(OC4CC4)c3)nn(-c3nc(C(=O)O)cs3)c2CC2CC2)cc1F
314 nM	NS(=O)(=O)c1ccc(Cc2c(-c3cccc(Nc4ccccc4)c3)nn(-c3nc(C(=O)O)cs3)c2CC2CC2)cc1
7 nM	NS(=O)(=O)c1ccc(Cc2c(-c3ccc(F)c(NC(=O)c4ccccc4)c3)nn(-c3nc(C(=O)O)cs3)c2CC2CC2)cc1F
41 nM	NS(=O)(=O)c1ccc(Cc2c(-c3ccc(F)c(Oc4ccc(F)cc4)c3)nn(-c3nc(C(=O)O)cs3)c2CC2CC2)cc1F

Target: T1, L-lactate dehydrogenase A chain
Test: Inhibition of LDHA in human A673 cells assessed as reduction in lactate production incubated for 2 hrs by fluorescence based assay
Type: cell-based
Settings: not given

IC50	Compound
730 nM	NS(=O)(=O)c1ccc(Cc2c(-c3ccc(F)c(OCc4cccc(F)c4)c3)nn(-c3nc(C(=O)O)cs3)c2CC2CC2)cc1F
1900 nM	NS(=O)(=O)c1ccc(Cc2c(-c3ccc(F)c(OC4CC4)c3)nn(-c3nc(C(=O)O)cs3)c2CC2CC2)cc1F
3100 nM	NS(=O)(=O)c1ccc(Cc2c(-c3cccc(Nc4ccccc4)c3)nn(-c3nc(C(=O)O)cs3)c2CC2CC2)cc1
2300 nM	NS(=O)(=O)c1ccc(Cc2c(-c3ccc(F)c(NC(=O)c4ccccc4)c3)nn(-c3nc(C(=O)O)cs3)c2CC2CC2)cc1F

Compound	IC50
NS(=O)(=O)c1ccc(Cc2c(-c3ccc(F)c(OCC4CC4(F)F)c3)nn(-c3nc(C(=O)O)cs3)c2CC2CC2)cc1F (centres undefined)	1100 nM

System: not listed separately
Test: Metabolic stability in rat microsomes assessed as half life
Type: ADME, Microsome
Settings: not given

t1/2	Compound
< 1 min	NS(=O)(=O)c1ccc(Cc2c(-c3ccc(F)c(OCc4cccc(F)c4)c3)nn(-c3nc(C(=O)O)cs3)c2CC2CC2)cc1F
> 30 min	NS(=O)(=O)c1ccc(Cc2c(-c3ccc(F)c(OC4CC4)c3)nn(-c3nc(C(=O)O)cs3)c2CC2CC2)cc1F
6 min	NS(=O)(=O)c1ccc(Cc2c(-c3cccc(Nc4ccccc4)c3)nn(-c3nc(C(=O)O)cs3)c2CC2CC2)cc1
> 30 min	NS(=O)(=O)c1ccc(Cc2c(-c3ccc(F)c(NC(=O)c4ccccc4)c3)nn(-c3nc(C(=O)O)cs3)c2CC2CC2)cc1F

Compound	t1/2
NS(=O)(=O)c1ccc(Cc2c(-c3ccc(F)c(OCC4CC4(F)F)c3)nn(-c3nc(C(=O)O)cs3)c2CC2CC2)cc1F (centres undefined)	> 30 min
